# Assay results reported in ChEMBL document CHEMBL3352227, “Synthesis, antimycobacterial and antibacterial evaluation of l-[(1R, 2S)-2-fluorocyclopropyl]fluoroquinolone derivatives containing an oxime functional moiety” (Eur J Med Chem, 2014).
# How the values were obtained:
# Type in all cases: functional
# [1] = test system: Staphylococcus epidermidis; assay: Antibacterial activity against methicillin-sensitive Staphylococcus epidermidis 12-8 after 18 to 24 hrs by standard twofold serial dilution method
# Streptococcus pneumoniae [2] = assay: Antibacterial activity against Streptococcus pneumoniae ATCC 49619 after 18 to 24 hrs by standard twofold serial dilution method
# [3] = test system: Staphylococcus epidermidis; assay: Antibacterial activity against methicillin-sensitive Staphylococcus epidermidis 12-6 after 18 to 24 hrs by standard twofold serial dilution method
# Escherichia coli [4] = assay: Antibacterial activity against Escherichia coli 12-1 after 18 to 24 hrs by standard twofold serial dilution method
# Pseudomonas aeruginosa [5] = assay: Antibacterial activity against Pseudomonas aeruginosa 12-12 after 18 to 24 hrs by standard twofold serial dilution method
# [6] = test system: Staphylococcus epidermidis; assay: Antibacterial activity against methicillin-resistant Staphylococcus epidermidis 12-1 after 18 to 24 hrs by standard twofold serial dilution method
# [7] = test system: Staphylococcus epidermidis; assay: Antibacterial activity against methicillin-resistant Staphylococcus epidermidis 12-6 after 18 to 24 hrs by standard twofold serial dilution method
# Klebsiella pneumoniae [8] = assay: Antibacterial activity against extended-spectrum beta-lactamase producin Klebsiella pneumoniae 12-4 after 18 to 24 hrs by standard twofold serial dilution method
# Klebsiella pneumoniae [9] = assay: Antibacterial activity against extended-spectrum beta-lactamase producin Klebsiella pneumoniae 12-14 after 18 to 24 hrs by standard twofold serial dilution method
# Klebsiella pneumoniae [10] = assay: Antibacterial activity against Klebsiella pneumoniae 12-4 after 18 to 24 hrs by standard twofold serial dilution method
# [11] = test system: Mycobacterium tuberculosis; assay: Antimycobacterial activity against Mycobacterium tuberculosis H37Rv ATCC 27294 by MABA method
# Klebsiella pneumoniae [12] = assay: Antibacterial activity against extended-spectrum beta-lactamase producin Klebsiella pneumoniae 12-3 after 18 to 24 hrs by standard twofold serial dilution method
# Staphylococcus aureus [13] = assay: Antibacterial activity against methicillin-sensitive Staphylococcus aureus 12-5 after 18 to 24 hrs by standard twofold serial dilution method
# Escherichia coli [14] = assay: Antibacterial activity against Escherichia coli ATCC 25922 after 18 to 24 hrs by standard twofold serial dilution method
# Escherichia coli [15] = assay: Antibacterial activity against extended-spectrum beta-lactamase producing Escherichia coli 12-14 after 18 to 24 hrs by standard twofold serial dilution method
# Escherichia coli [16] = assay: Antibacterial activity against extended-spectrum beta-lactamase producing Escherichia coli 12-15 after 18 to 24 hrs by standard twofold serial dilution method
# Staphylococcus aureus [17] = assay: Antibacterial activity against methicillin-sensitive Staphylococcus aureus 12-2 after 18 to 24 hrs by standard twofold serial dilution method
# Streptococcus pneumoniae [18] = assay: Antibacterial activity against Streptococcus pneumoniae 12-18 after 18 to 24 hrs by standard twofold serial dilution method
# Klebsiella pneumoniae [19] = assay: Antibacterial activity against extended-spectrum beta-lactamase producin Klebsiella pneumoniae 12-7 after 18 to 24 hrs by standard twofold serial dilution method
# Klebsiella pneumoniae [20] = assay: Antibacterial activity against Klebsiella pneumoniae 12-2 after 18 to 24 hrs by standard twofold serial dilution method
# Staphylococcus aureus [21] = assay: Antibacterial activity against methicillin-resistant Staphylococcus aureus 12-5 after 18 to 24 hrs by standard twofold serial dilution method
# Klebsiella pneumoniae [22] = assay: Antibacterial activity against Klebsiella pneumoniae 12-1 after 18 to 24 hrs by standard twofold serial dilution method
# Escherichia coli [23] = assay: Antibacterial activity against extended-spectrum beta-lactamase producing Escherichia coli 12-3 after 18 to 24 hrs by standard twofold serial dilution method
# [24] = test system: Staphylococcus epidermidis; assay: Antibacterial activity against methicillin-sensitive Staphylococcus epidermidis 12-1 after 18 to 24 hrs by standard twofold serial dilution method
# Staphylococcus aureus [25] = assay: Antibacterial activity against methicillin-resistant Staphylococcus aureus 12-2 after 18 to 24 hrs by standard twofold serial dilution method
# [26] = test system: Staphylococcus epidermidis; assay: Antibacterial activity against methicillin-sensitive Staphylococcus epidermidis 12-3 after 18 to 24 hrs by standard twofold serial dilution method
# Staphylococcus aureus [27] = assay: Antibacterial activity against methicillin-sensitive Staphylococcus aureus 12-4 after 18 to 24 hrs by standard twofold serial dilution method
# Staphylococcus aureus [28] = assay: Antibacterial activity against Staphylococcus aureus ATCC 25923 after 18 to 24 hrs by standard twofold serial dilution method
# Pseudomonas aeruginosa [29] = assay: Antibacterial activity against Pseudomonas aeruginosa 12-14 after 18 to 24 hrs by standard twofold serial dilution method
# Escherichia coli [30] = assay: Antibacterial activity against extended-spectrum beta-lactamase producing Escherichia coli 12-2 after 18 to 24 hrs by standard twofold serial dilution method
# Staphylococcus aureus [31] = assay: Antibacterial activity against methicillin-resistant Staphylococcus aureus 12-4 after 18 to 24 hrs by standard twofold serial dilution method
# Staphylococcus aureus [32] = assay: Antibacterial activity against methicillin-sensitive Staphylococcus aureus 12-1 after 18 to 24 hrs by standard twofold serial dilution method
Compound,MIC [1] [µg/mL],MIC (Streptococcus pneumoniae [2]) [µg/mL],MIC [3] [µg/mL],MIC (Escherichia coli [4]) [µg/mL],MIC (Pseudomonas aeruginosa [5]) [µg/mL],MIC [6] [µg/mL],MIC [7] [µg/mL],MIC (Klebsiella pneumoniae [8]) [µg/mL],MIC (Klebsiella pneumoniae [9]) [µg/mL],MIC (Klebsiella pneumoniae [10]) [µg/mL],MIC [11] [µg/mL],MIC (Klebsiella pneumoniae [12]) [µg/mL],MIC (Staphylococcus aureus [13]) [µg/mL],MIC (Escherichia coli [14]) [µg/mL],MIC (Escherichia coli [15]) [µg/mL],MIC (Escherichia coli [16]) [µg/mL],MIC (Staphylococcus aureus [17]) [µg/mL],MIC (Streptococcus pneumoniae [18]) [µg/mL],MIC (Klebsiella pneumoniae [19]) [µg/mL],MIC (Klebsiella pneumoniae [20]) [µg/mL],other results
CO/N=C1/CN(c2c(F)cc3c(=O)c(C(=O)O)cn([C@@H]4C[C@@H]4F)c3c2OC)[C@H]1CN,2,0.25,0.125,2,2,2,2,16,64,0.5,0.5,64,0.125,0.25,128,64,0.125,2,2,0.5,MIC (Staphylococcus aureus [21]): 4 µg/mL; MIC (Klebsiella pneumoniae [22]): 0.5 µg/mL; MIC (Escherichia coli [23]): 32 µg/mL; MIC [24]: 0.125 µg/mL; MIC (Staphylococcus aureus [25]): 8 µg/mL; MIC [26]: 0.125 µg/mL; MIC (Staphylococcus aureus [27]): 0.06 µg/mL; MIC (Staphylococcus aureus [28]): < 0.008 µg/mL; MIC (Pseudomonas aeruginosa [29]): 16 µg/mL; MIC (Escherichia coli [30]): 64 µg/mL; MIC (Staphylococcus aureus [31]): 8 µg/mL; MIC (Staphylococcus aureus [32]): 0.125 µg/mL
NCC1CN(c2cc3c(cc2F)c(=O)c(C(=O)O)cn3[C@@H]2C[C@@H]2F)C/C1=N/OCc1ccccc1 (stereo partly specified),0.125,0.06,0.06,0.06,1,1,0.5,16,64,0.25,0.25,16,0.06,0.06,16,64,< 0.008,0.25,16,0.25,MIC (Staphylococcus aureus [21]): 4 µg/mL; MIC (Klebsiella pneumoniae [22]): 0.06 µg/mL; MIC (Escherichia coli [23]): 32 µg/mL; MIC [24]: 0.125 µg/mL; MIC (Staphylococcus aureus [25]): 4 µg/mL; MIC [26]: 0.125 µg/mL; MIC (Staphylococcus aureus [27]): 0.06 µg/mL; MIC (Staphylococcus aureus [28]): < 0.008 µg/mL; MIC (Pseudomonas aeruginosa [29]): 1 µg/mL; MIC (Escherichia coli [30]): 64 µg/mL; MIC (Staphylococcus aureus [31]): 8 µg/mL; MIC (Staphylococcus aureus [32]): 0.06 µg/mL
CO/N=C1/CN(c2cc3c(cc2F)c(=O)c(C(=O)O)cn3[C@@H]2C[C@@H]2F)CC1CN (stereo partly specified),0.25,0.03,0.125,0.25,2,2,0.125,16,64,0.25,1,32,0.125,0.03,32,128,0.125,0.25,1,0.25,MIC (Staphylococcus aureus [21]): 8 µg/mL; MIC (Klebsiella pneumoniae [22]): 0.25 µg/mL; MIC (Escherichia coli [23]): 32 µg/mL; MIC [24]: 0.06 µg/mL; MIC (Staphylococcus aureus [25]): 16 µg/mL; MIC [26]: 0.06 µg/mL; MIC (Staphylococcus aureus [27]): 0.06 µg/mL; MIC (Staphylococcus aureus [28]): < 0.008 µg/mL; MIC (Pseudomonas aeruginosa [29]): 2 µg/mL; MIC (Escherichia coli [30]): 128 µg/mL; MIC (Staphylococcus aureus [31]): 4 µg/mL; MIC (Staphylococcus aureus [32]): 0.125 µg/mL
